Test results reported in article PMC12337661, “PIEZO1 mechanical insensitivity in generalized lymphatic dysplasia with the potential for pharmacological rescue” (iScience, 2025).

Molecular target: T1, I2286T mPIEZO1 (Mus musculus, UniProt E2JF22, I2286T)
T1 construct: expressed in transfected cells
Assay: Intracellular Ca2+ measurement (fura-2), T-REx-293 cells stably transfected
Assay type: cell-based
Procedure: T-REx-293 cell line was transfected with pcDNA4/TO-mPIEZO1 constructs using Lipofectamine 2000 (Invitrogen) as above and treated with 200 μg.mL^−1 zeocin (InvivoGen) to select for stably transfected cells. At least two strongly expressing clonal cell lines were established and tested for each variant. All cell lines were maintained in Dulbecco’s Modified Eagle’s medium (Invitrogen) supplemented with 10% heat-inactivated fetal calf serum (Sigma-Aldrich), penicillin (50 units.mL^−1) and streptomycin (0.5 mg.mL^−1) (Sigma-Aldrich) and grown at 37°C in a humidified 5% CO2 incubator.
For intracellular Ca^2+ assays, cells were plated at 80–90% confluence in 96-well plates 24 h prior to recordings (6–8 × 10^4 cells per well). […] Cells were washed with SBS and incubated at room temperature for 20 min prior to recordings. Equal volumes of 2x concentrated compounds were injected to test for acute channel activation. Pre-incubation with compounds occurred during the 20 min prior to recordings. To expose cell membranes to hypo-osmolality, an equal volume of hypotonic SBS (containing only 35 mM NaCl) was injected onto the cells. Measurements were made on a fluorescence plate reader (Flexstation III, Molecular Devices) at room temperature (21 ± 2°C). Fura-2 was excited at 340 nm and 380 nm and emitted light collected at 510 nm, with measurements shown as the change in fluorescence (F) ratio (ΔF340/380).
KC41 (Dooku1) was prepared as described.[28] All purchased chemicals and solvents were used without further purification unless otherwise stated. All compounds were at least 95% pure by 1H NMR. 1H Nuclear Magnetic Resonance spectra were recorded at 500 MHz using a Bruker DRX 500 instrument or at 400 MHz using a Bruker DPX 400. 1H spectra are referenced based on the residual proton in the solvent (e.g., the CHCl3, 0.01% in 99.99% CDCl3). Coupling constants (J) are reported to the nearest 0.1 Hz. 13C NMR spectra were recorded at 125 MHz on 500 MHz spectrometers or at 100 MHz on 400 MHz spectrometers. LC-MS was performed on a Bruker Daltronics running a gradient of increasing acetonitrile (5–95%) in H2O both containing 0.1% formic acid at 1 mL.min^−1, on a short path C18 reverse phase column, detecting compounds with both a diode array detector and a Bruker mass spectrum analyser. HRMS was performed on a Bruker Daltonics micrOTOF using positive electrospray ionisation (ES+). Automated column chromatograph was carried out using a Biotage Isolera Four, using either Sfär Silica D or KP-Silica cartridges. HPLC was performed on an Agilent 1290 Infinity Series equipped with a UV detector and Hyperprep C18 reverse phase column. Key to NMR abbreviations: s (singlet), br s (broad singlet) d (doublet), dd (doublet of doublets), ddd (doublet of doublets of doublets), t (triplet), dt (doublet of triples), q (quartet), m (multiplet), ap. t (apparent triplet). For experiments, Yoda1 and its analogues were prepared as 10 mM stock solutions in 100% dimethyl sulfoxide (DMSO) before serial dilution in DMSO and final dilution in aqueous solution. Cells were exposed to 0.1% DMSO for all concentrations of the compounds from 0 to 10 μM.

T1 sequence (E2JF22 whole entry I2286T): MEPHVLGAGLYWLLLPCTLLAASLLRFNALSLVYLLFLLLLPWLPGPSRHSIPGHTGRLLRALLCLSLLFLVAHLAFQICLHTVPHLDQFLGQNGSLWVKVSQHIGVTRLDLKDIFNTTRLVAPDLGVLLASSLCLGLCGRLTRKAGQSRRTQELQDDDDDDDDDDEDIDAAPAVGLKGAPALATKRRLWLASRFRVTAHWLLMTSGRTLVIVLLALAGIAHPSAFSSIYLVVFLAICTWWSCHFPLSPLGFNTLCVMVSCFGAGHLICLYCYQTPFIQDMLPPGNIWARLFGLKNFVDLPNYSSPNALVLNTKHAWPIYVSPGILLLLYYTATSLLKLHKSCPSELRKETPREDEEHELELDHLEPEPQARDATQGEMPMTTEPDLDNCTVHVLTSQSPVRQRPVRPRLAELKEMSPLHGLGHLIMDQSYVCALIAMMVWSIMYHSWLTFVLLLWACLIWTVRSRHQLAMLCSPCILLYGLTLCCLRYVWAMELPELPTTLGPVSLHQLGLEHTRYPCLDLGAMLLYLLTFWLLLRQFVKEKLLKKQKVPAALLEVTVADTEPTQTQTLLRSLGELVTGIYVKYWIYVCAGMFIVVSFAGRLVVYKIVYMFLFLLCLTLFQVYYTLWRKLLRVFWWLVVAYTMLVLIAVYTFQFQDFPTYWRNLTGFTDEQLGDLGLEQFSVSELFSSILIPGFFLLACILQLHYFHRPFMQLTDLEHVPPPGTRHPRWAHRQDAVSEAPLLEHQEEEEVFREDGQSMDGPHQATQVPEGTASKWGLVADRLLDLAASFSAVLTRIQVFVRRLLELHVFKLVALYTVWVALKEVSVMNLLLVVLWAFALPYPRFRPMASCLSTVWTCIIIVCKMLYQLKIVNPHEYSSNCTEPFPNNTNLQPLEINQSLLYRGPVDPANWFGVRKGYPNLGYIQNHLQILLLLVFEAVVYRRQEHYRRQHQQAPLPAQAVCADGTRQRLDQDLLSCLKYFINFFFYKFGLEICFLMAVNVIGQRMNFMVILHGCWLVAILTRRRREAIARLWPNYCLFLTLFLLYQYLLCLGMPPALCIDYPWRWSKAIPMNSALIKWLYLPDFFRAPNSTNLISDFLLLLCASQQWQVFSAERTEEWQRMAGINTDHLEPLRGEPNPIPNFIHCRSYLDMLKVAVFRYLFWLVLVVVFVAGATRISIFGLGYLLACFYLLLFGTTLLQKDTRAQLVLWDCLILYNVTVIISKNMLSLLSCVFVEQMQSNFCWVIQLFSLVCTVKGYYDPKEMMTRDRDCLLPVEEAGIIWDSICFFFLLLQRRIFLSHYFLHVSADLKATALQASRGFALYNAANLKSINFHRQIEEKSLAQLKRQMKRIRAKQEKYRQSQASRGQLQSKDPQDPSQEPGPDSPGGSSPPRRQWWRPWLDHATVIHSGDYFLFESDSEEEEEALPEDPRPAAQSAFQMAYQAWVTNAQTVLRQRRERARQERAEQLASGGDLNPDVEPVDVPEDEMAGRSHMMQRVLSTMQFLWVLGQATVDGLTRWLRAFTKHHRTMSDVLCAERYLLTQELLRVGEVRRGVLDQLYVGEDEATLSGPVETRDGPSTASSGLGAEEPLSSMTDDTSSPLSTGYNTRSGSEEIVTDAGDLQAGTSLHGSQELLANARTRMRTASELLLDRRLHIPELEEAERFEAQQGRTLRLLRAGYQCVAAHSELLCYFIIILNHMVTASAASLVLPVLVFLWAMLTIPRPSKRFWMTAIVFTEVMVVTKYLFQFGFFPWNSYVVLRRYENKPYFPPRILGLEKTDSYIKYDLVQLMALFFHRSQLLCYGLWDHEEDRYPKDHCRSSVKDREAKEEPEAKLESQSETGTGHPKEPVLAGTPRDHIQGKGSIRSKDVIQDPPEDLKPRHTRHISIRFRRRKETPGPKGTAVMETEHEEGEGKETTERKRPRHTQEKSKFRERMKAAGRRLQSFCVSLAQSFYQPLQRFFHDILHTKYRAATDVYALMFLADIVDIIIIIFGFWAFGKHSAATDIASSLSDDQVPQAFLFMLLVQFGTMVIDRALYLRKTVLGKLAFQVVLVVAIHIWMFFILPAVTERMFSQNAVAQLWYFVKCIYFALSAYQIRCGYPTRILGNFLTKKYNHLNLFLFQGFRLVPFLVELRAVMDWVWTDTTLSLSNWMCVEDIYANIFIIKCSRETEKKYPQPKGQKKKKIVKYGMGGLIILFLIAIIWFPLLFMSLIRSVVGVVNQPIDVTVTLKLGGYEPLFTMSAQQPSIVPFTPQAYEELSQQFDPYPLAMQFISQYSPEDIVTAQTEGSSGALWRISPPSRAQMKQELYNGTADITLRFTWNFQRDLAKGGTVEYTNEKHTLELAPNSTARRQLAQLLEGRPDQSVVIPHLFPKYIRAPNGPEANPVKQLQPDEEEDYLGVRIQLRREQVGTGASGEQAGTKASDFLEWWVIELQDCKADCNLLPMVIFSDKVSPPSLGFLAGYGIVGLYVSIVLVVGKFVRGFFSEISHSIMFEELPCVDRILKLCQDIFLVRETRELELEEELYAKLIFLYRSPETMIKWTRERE

Structure (SMILES): O=C(O)c1ccc(-c2cnc(SCc3c(Cl)cccc3Cl)s2)cc1 [Yoda2b, 4-(2-([(2,6-Dichlorophenyl)methyl]sulfanyl)-1,3-thiazol-5-yl)benzoic acid]
- Mean (ΔFratio) (0.3 µM, time 0 s): 0.00239
- Mean (ΔFratio) (0.3 µM, time 5 s): -0.00843
- Mean (ΔFratio) (0.3 µM, time 10 s): 0.00738
- Mean (ΔFratio) (0.3 µM, time 15 s): -3.95E-05
- Mean (ΔFratio) (0.3 µM, time 20 s): -9.74E-04
- Mean (ΔFratio) (0.3 µM, time 25 s): -3.25E-04
- Mean (ΔFratio) (0.3 µM, time 30 s): -0.07905
- Mean (ΔFratio) (0.3 µM, time 35 s): -0.08536
- Mean (ΔFratio) (0.3 µM, time 40 s): 0.2313
- Mean (ΔFratio) (0.3 µM, time 45 s): 0.4546
- Mean (ΔFratio) (0.3 µM, time 50 s): 0.5954
- Mean (ΔFratio) (0.3 µM, time 55 s): 0.6989
- Mean (ΔFratio) (0.3 µM, time 60 s): 0.7448
- Mean (ΔFratio) (0.3 µM, time 65 s): 0.7353
- Mean (ΔFratio) (0.3 µM, time 70 s): 0.7286
- Mean (ΔFratio) (0.3 µM, time 75 s): 0.7236
- Mean (ΔFratio) (0.3 µM, time 80 s): 0.681
- Mean (ΔFratio) (0.3 µM, time 85 s): 0.6794
- Mean (ΔFratio) (0.3 µM, time 90 s): 0.6567
- Mean (ΔFratio) (0.3 µM, time 95 s): 0.6006
- Mean (ΔFratio) (0.3 µM, time 100 s): 0.6101
- Mean (ΔFratio) (0.3 µM, time 105 s): 0.603
- Mean (ΔFratio) (0.3 µM, time 110 s): 0.5805
- Mean (ΔFratio) (0.3 µM, time 115 s): 0.5587
- Mean (ΔFratio) (0.3 µM, time 120 s): 0.5669
- Mean (ΔFratio) (0.3 µM, time 125 s): 0.5131
- Mean (ΔFratio) (0.3 µM, time 130 s): 0.5257
- Mean (ΔFratio) (3 µM, time 0 s): -0.00226
- Mean (ΔFratio) (3 µM, time 5 s): 0.01302
- Mean (ΔFratio) (3 µM, time 10 s): -0.01316
- Mean (ΔFratio) (3 µM, time 15 s): -0.00422
- Mean (ΔFratio) (3 µM, time 20 s): 0.00798
- Mean (ΔFratio) (3 µM, time 25 s): -0.00136
- Mean (ΔFratio) (3 µM, time 30 s): -0.4575
- Mean (ΔFratio) (3 µM, time 35 s): -0.0464
- Mean (ΔFratio) (3 µM, time 40 s): 0.8681
- Mean (ΔFratio) (3 µM, time 45 s): 1.381
- Mean (ΔFratio) (3 µM, time 50 s): 1.657
- Mean (ΔFratio) (3 µM, time 55 s): 1.797
- Mean (ΔFratio) (3 µM, time 60 s): 1.789
- Mean (ΔFratio) (3 µM, time 65 s): 1.7806
- Mean (ΔFratio) (3 µM, time 70 s): 1.778
- Mean (ΔFratio) (3 µM, time 75 s): 1.702
- Mean (ΔFratio) (3 µM, time 80 s): 1.669
- Mean (ΔFratio) (3 µM, time 85 s): 1.657
- Mean (ΔFratio) (3 µM, time 90 s): 1.535
- Mean (ΔFratio) (3 µM, time 95 s): 1.511
- Mean (ΔFratio) (3 µM, time 100 s): 1.421
- Mean (ΔFratio) (3 µM, time 105 s): 1.3863
- Mean (ΔFratio) (3 µM, time 110 s): 1.364
- Mean (ΔFratio) (3 µM, time 115 s): 1.304
- Mean (ΔFratio) (3 µM, time 120 s): 1.27
- Mean (ΔFratio) (3 µM, time 125 s): 1.258
- Mean (ΔFratio) (3 µM, time 130 s): 1.2123
- EC50 (1.5 min exposure): 710 nM
- Mean (concentration-response, Figure 3l) (1.5 min exposure, 0.01 µM): 0.00606
- Mean (concentration-response, Figure 3l) (1.5 min exposure, 0.03 µM): 0.01869
- Mean (concentration-response, Figure 3l) (1.5 min exposure, 0.1 µM): 0.08252
- Mean (concentration-response, Figure 3l) (1.5 min exposure, 0.3 µM): 0.2937
- Mean (concentration-response, Figure 3l) (1.5 min exposure, 1 µM): 0.643
- Mean (concentration-response, Figure 3l) (1.5 min exposure, 3 µM): 0.8962
- Mean (concentration-response, Figure 3l) (1.5 min exposure, 10 µM): 1.056
- side-by-side comparison of channel activation with Yoda1 (same 96-well plate): more effective at activating I2286T channels than Yoda1
